Non-standard residues stand in square brackets, D forms with d. Residues, ends and D or L forms follow the SMILES beside them. *: point of attachment. Leu(ol) = CC(C)C[C@H](N)CO; Cbz = O=C(OCc1ccccc1)*

Melting point data for 61 compounds are collected here from a melting point compilation (Tetko et al.; mined from patent text by program, amines drawn as free bases though some values may be those of a salt).

`CCCCCCCCCCCCCCCCCCNC(=O)Nc1ccc(O)cc1` displayed a melting point of 144 °C.
The same measure for `CC(C)c1c(C=O)c(-c2ccccc2)c2c3ccccc3cnn12`: 163 to 164 °C; for `CC(Oc1cc(-c2nn(C)c(OC(F)F)c2Cl)c(Cl)cc1Cl)C(=O)N(C)C` (stereo unspecified): 149 °C; for `CC1CCCN1CCCN1CCN(C2CCN(Cc3ccccc3)CC2)C1=C(C#N)C#N` (stereo unspecified): 130 to 131 °C.
With `CCC[C@H]1C(=O)N[C@H]2CCN[C@@H]21` (relative stereo), the melting point was in the range of 97 to 100 °C.
Regarding `Cc1cc([N+](=O)[O-])cc(C)c1Oc1ccc(O)c(C(=O)c2ccc(F)cc2)c1`, the melting point is 148 to 150 °C.
The same measure for `N=C1CN(c2ccccc2)C(=N)O1`: 117 to 119 °C; for `CCCCNC(=O)COc1ccn2nc(-c3ccccc3)c(-c3ccc(=O)n(C(C)C)n3)c2c1`: 151 to 152 °C.
Then `Nc1nc2c(C(CC(=O)O)C3CCCCC3)c[nH]c2c(=O)[nH]1` (stereo unspecified), with greater than 300 °C; and `N#Cc1ccc(OCC(O)CN2C3CCC2CNC3)cc1` (stereo unspecified), with 125 to 128 °C; and `COc1cc(OC)nc(NC(=O)NS(=O)(=O)c2c(C(F)F)nsc2OCC(F)(F)F)n1`, with 200 to 202 °C.
Then `CCOC(=O)c1nc2c(C(=O)OCC)cccn2c1[N+](=O)[O-]`, with 139 to 140 °C; and `Cc1ccc(NC(=O)C(N)c2ccc3c(c2)C(C)(C)CCC3(C)C)cc1` (stereo unspecified), with 161 to 163 °C.
`O=c1c2c[nH]c3ccccc3c-2nn1-c1cnc2ccccc2c1` yielded a melting point greater than 350 °C.
`COc1cc2c(cc1OC)C(Cc1cc(I)c(I)c(I)c1)N(C(=O)C(F)(F)F)CC2` (stereo unspecified): the melting point was 215 to 216 °C.
On to `Cc1c(-c2ccccc2)c(C2=CCNC2)c2oc(C3CC3)nc2c1C#N`, for which the melting point lay in the range of 172 to 174 °C.
The same measure for `CC(C)C[C@@H](CO)NC(=O)[C@H](Cc1c[nH]cn1)NC(=O)[C@H](Cc1ccccc1)NC(=O)OCc1ccccc1` (Cbz-Phe-His-[Leu(ol)]): 181 to 183 °C; for `Cc1c(C)c2c(c(C)c1N)CC(C)(CN1CCC(CCO)CC1)O2` (stereo unspecified): 94 to 95 °C.
Then `COc1ccc(C(=O)c2ccc(NC(C)=O)cc2)cc1`, with 160 to 162 °C; and `Cc1cnn(-c2ncc(C(=O)N3Cc4cccn4Cc4ccccc43)c(C(F)(F)F)n2)c1`, with 214 to 217 °C.
Then `CCOc1cc2c(c3c1OC(C)(C)C3)C(c1cccc(NC(=O)CSC)c1)=NC(C)(C)C2`, with 162 to 163 °C; and `O=C(Nc1cccc(C(F)(F)F)c1)Nc1ccc(OCc2ccccc2)cc1O`, with 184 to 185 °C; and `CC(=CN(C)C)C(=O)c1ccc(Cl)cc1`, with 45 to 47 °C.
As to `CN(C(=O)OC(C)(C)C)c1cc(Oc2ccc(-c3ccc(OCc4ccccc4)cc3)cc2)ccc1[N+](=O)[O-]`, the melting point fell in the range of 123 to 125 °C.
Then `O=C(Nc1cccc2c1ncc1c(=O)[nH]cnc12)c1c(Cl)cccc1Cl`, with greater than 250 °C.
The same measure for `Cn1ccnc1Sc1ccc(Nc2c(C#N)cnc3cc(-c4csc(CN5CCOCC5)c4)ccc23)cc1Cl`: 110 to 113 °C; for `CC(C)C(NC(=O)Cn1cccc(NC(=O)CCc2ccccc2)c1=O)C(=O)C(F)(F)F` (stereo unspecified): 154 to 155 °C; for `C#CCOc1cc(-c2ncnc(C(Cl)Cl)c2Cl)c(F)cc1Cl`: 86 to 88 °C.
The same measure for `COC(=O)CCCCC(O)c1ccc2c(c1)CCCC2` (stereo unspecified): 107 to 108 °C.
As to `CCN(CC)CC(=C1NCCCS1)[N+](=O)[O-]`, the melting point was in the range of 68 to 69 °C.
The compound `COc1ccc(C2=NN(C3CCCC3)C(=O)[C@H]3CC=CC[C@@H]23)cc1O` (relative stereo) had a melting point of 142 to 144 °C.
Then `O=C(Cl)c1cc(OCc2ccccc2)cc(OCc2ccccc2)c1`, with 73 to 74 °C.
The same measure for `N#Cc1cccc(C2=Nc3ccc(C#CC4=CCCCC4)cc3NC(=O)C2)c1`: 228 °C.
Regarding `CC(ON1C(C)(C)CC2(CC1(C)C)OCC(C)(C)CO2)c1ccc(O)cc1` (stereo unspecified), the melting point lay in the range of 133 to 134 °C.
As to `COc1cc2ccc(C(=O)c3ccccc3)cc2cc1OC`, the melting point lay within 124 to 125 °C.
The same measure for `C=CCn1c(=O)[nH]c2ccccc2c1=N`: 223 to 224 °C; for `O=C(O)COc1ccc(CCNS(=O)(=O)c2ccccc2)cc1[N+](=O)[O-]`: 135 to 136 °C; for `CCN1c2ncc(CC(OC(C)=O)c3ccncc3)cc2C(=O)N(C)c2ccc(Cl)nc21` (stereo unspecified): 157 to 158 °C.
For the compound `COCc1cn(-c2cccc(C(F)(F)F)c2)nc(-c2ccnn2-c2ccccc2)c1=O`, the melting point was in the range of 137 to 139 °C.
As for `COC(C)(C)C(=O)Nc1ccc(Sc2nc(C)cc(C)n2)cc1`, the melting point fell in the range of 123 to 125 °C.
Then `O=C(O)c1sc(-c2ccc(C(F)(F)F)cc2)nc1CO`, with 250 to 252 °C; and `CNc1nc(OC)ccc1Nc1nc(Nc2cc3c(cc2OC)CCN(CC(=O)N(C)C)CC3)ncc1Cl`, with 191 to 194 °C; and `O=C(O)c1ncn2c1[C@@H]1CCCN1C(=O)c1cc(Cl)ccc1-2`, with 227 °C.
Then `O=C(CCN1CCOCC1)NCc1ccc2c(c1)-c1[nH]nc(-c3ccsc3)c1C2`, with 228 to 230 °C.
The same measure for `Cc1cccc(C)c1SC(CC(C)C)c1c(O)cc(-c2ccccc2)oc1=O` (stereo unspecified): 166 to 167 °C; for `CCN(C)C(=O)[C@H]1O[C@@H](n2cnc3c(N)ncnc32)[C@H](O)[C@@H]1O`: 86 to 90 °C; for `CC(=O)OCc1ncc2n1-c1ccc(Cl)cc1C(c1ccccc1F)=NC2`: 151 to 152 °C.
The compound `CCCCc1nc2ccccc2n1Cc1ccc(-c2ccccc2-c2nnn[nH]2)cc1` had a melting point of 230 to 232 °C.
The same measure for `FC(F)(F)c1nncn1-c1ccccc1`: 80 °C; for `CC(C)(C)c1cc(-c2n[nH]c(=O)o2)cc(C(C)(C)C)c1O`: 246 °C.
On to `COc1ccc(Oc2ccc3c(c2)OCC(=O)N3)cc1`, for which the melting point lay within 163 to 164 °C.
Then `CC(=O)Nc1ccc(C(=O)O)c(O)c1`, with 221 to 223 °C; and `CCCc1nc2c(N)nc3ccccc3c2n1CC1(C(N)=O)CCC1`, with 234 to 237 °C; and `CCOC(=O)C1=C(C)NC(C)=C(C(=O)OC)C1c1ccc(SC)cc1` (stereo unspecified), with 163 °C.
In turn, `O=C(NCCCN1CCC(c2ccccn2)CC1)N1C(=O)OCC1c1ccc(F)c(F)c1` (stereo unspecified) returned a melting point of 142 to 144 °C.
For `CN1CC2=C(n3cnc(C#CC(C)(C)O)c3C1)S(=O)C=C2` (stereo unspecified), the melting point fell in the range of 180 to 181 °C.
The same measure for `CCC1(C)Oc2cccc(O)c2O1` (stereo unspecified): 48 to 50 °C; for `CN(C)c1ccc(/C=C/c2cccc(F)c2)cc1`: 147 to 148 °C.
The same measure for `CC(C)(C)OC(=O)N1CCN(c2nccc(Oc3ccc(NC(=O)c4cc(F)cc(N5CCCCC5)c4)c4ccccc34)n2)CC1`: 175 to 177 °C; for `CCCCC[C@H]1CC[C@H](CSc2cc(O)c3c(c2N)C(=O)c2ccccc2C3=O)CC1`: 129 to 130 °C.
As for `CCc1nc(N)nc(N)c1-c1ccc(NCCc2ccccc2)c([N+](=O)[O-])c1`, the melting point is 222 to 225 °C.
